Test results reported in patent US20260077069A1, “COMBINATIONS OF CONTRAST AGENTS” (BAYER AKTIENGESELLSCHAFT, priority 2022, published 2026).

What was measured:
[1] = Relaxivity measurements at 1.41 T in water and human plasma; format: physicochemical; conditions: 37° C., normalized to Gd
Protocol: Relaxivity measurements at 1.41 T were performed using a MiniSpec mq60 spectrometer (Bruker Analytik, Karlsruhe, Germany) operating at a resonance frequency of 60 MHz and a temperature of 37° C. The T1 relaxation times were determined using the standard inversion recovery (IR) method with a fixed relaxation delay of at least 5×T1. The variable inversion time (TI) was calculated automatically by the standard software of the MiniSpec mq60 (8 steps). The T2 measurements were performed by using a Carr-Purcell-Meiboom-Gill (CPMG) pulse sequence, applying a relaxation delay of at least 5×T1.
Each relaxivity measurement was performed using three different Gd concentrations (3 concentrations between 0.05 and 2 mM). The T1 and T2 relaxation times of the example compounds were measured in water and human plasma. Human plasma preparation: For each experiment fresh blood was taken from a volunteer using 10 mL citrate-tubes (Sarstedt S-Monovette 02.1067.001, 10 mL, Citrate). The 10 mL citrate-tubes were carefully inverted 10 times to mix blood and anticoagulant and centrifuged for 15 min at 1811 g at RT (Eppendorf, Centrifuge 5810R).
The relaxivities ri (where i=1, 2) were calculated based on the measured relaxation rates Ri in water and plasma:
where Ri(0) represent the relaxation rate of the respective solvent and CGd the concentration of the compound normalized to the Gadolinium. The Gadolinium concentrations of the investigated solutions were verified by Inductively Coupled Plasma Mass Spectrometry (ICP-MS Agilent 7500a, Waldbronn, Germany).

[2] = test system: freshly isolated rat hepatocytes; assay: Uptake into freshly isolated rat hepatocytes; format: cell-based; conditions: uptake with OATP1B1/1B3 inhibitor Rifampicine 1:1, each 100 uM
Protocol: Freshly isolated rat hepatocytes were received as described before (Papeleu P. et al. (2006) Isolation of Rat Hepatocytes. In: Phillips I. R., Shephard E. A. (eds) Cytochrome P450 Protocols. Methods in Molecular Biology, vol 320. Humana Press, Totowa, NJ. https://doi.org/10.1385/1-59259-998-2:229). The rat hepatocytes were incubated (2.5·10^5 cells/well) for 2.5 to 4 h in collagen coated 24-well plates (Fa. Beckton Dickinson Biocoat, cell environments, Collagen I Cellware) in Williams E-medium (Fa. Sigma W1878) in an incubator (37° C., 5% CO2 and […]). After incubation the adherent hepatocytes were washed once with 37° C. Hepes carbonate transport buffer (500 μL/well). The test items and RC3 were prepared from stock solutions (180 to 500 mM concentration) in Hepes carbonate transport buffer at pH 7.4 to reach a final concentration of 100 μmol Gd/L. The specific uptake of the test item or RC3 into rat hepatocytes via OATP1B1 and OATP1B3 was challenged using a known OATP1B1/1B3 inhibitor (Rifampicine, Fa. Sigma R3501, test item and inhibitor 1:1 each 100 µM final concentration). The prepared rat hepatocyte plates were incubated with test solutions (500 μL/well) at 37° C. for 10 min using a thermoshaker (Fa. Grant Bio, PHMP). Triplicates were performed for each test item. After incubating the cells were washed once with cold PBS buffer (Fa. Gibco, Dulbeccos PBS (+)). After washing the intact hepatocytes were lysed by addition of 500 μL cold 0.01% Triton-X 100 in Millipore water for 1 h. The strongly hypo-osmolar water led to cell membrane rupture and the release of the intracellular Gd-compound. After 1 h 500 μL of 10 nM Terbium ICP-MS standard was added in 2% nitric acid and 0.01% Triton 100 before the Gadolinium concentrations in the lysate were measured using ICP-MS (Agilent 8900, singleQuad, integr. Time 0.3 s, no gas, 5 replicates, Gd m/z 157, Tb m/z 159). As a reference standard RC3 is used in the same well plate. The hepatocyte uptake of the test compound is calculated relative to RC3 (resulting in the unit % of RC3).

Compound	r1 human plasma [1] [L/mmol/s]	r1 water [1] [L/mmol/s]	Inhibition Rifampicine [2] [% inhibition]
CC(C(=O)NCC(=O)N1CCN(C(=O)CNC(=O)C(C)N2CCN(CC(=O)[O-])CCN(CC(=O)[O-])CCN(CC(=O)[O-])CC2)CCN(C(=O)CNC(=O)C(C)N2CCN(CC(=O)[O-])CCN(CC(=O)[O-])CCN(CC(=O)[O-])CC2)CCN(C(=O)CNC(=O)C(C)N2CCN(CC(=O)[O-])CCN(CC(=O)[O-])CCN(CC(=O)[O-])CC2)CC1)N1CCN(CC(=O)[O-])CCN(CC(=O)[O-])CCN(CC(=O)[O-])CC1.[Gd+3].[Gd+3].[Gd+3].[Gd+3] (stereo not shown) [Compound 7]	12.1	10.8	
CCOCCOCCOc1ccc(CCC[C@@H](C(=O)O)N2CCN([C@@H](CO)C(=O)[O-])CCN([C@@H](CO)C(=O)[O-])CCN([C@@H](CO)C(=O)[O-])CC2)cc1.[Gd+3] [Compound 15]	8.7	5.1	94
O=C([O-])CN1CCN(CC(=O)[O-])CCN(CC(=O)N2CCN(C(=O)CN3CCN(CC(=O)[O-])CCN(CC(=O)[O-])CCN(CC(=O)[O-])CC3)CC(C(=O)N3CC4CN(C(=O)C5CN(C(=O)CN6CCN(CC(=O)[O-])CCN(CC(=O)[O-])CCN(CC(=O)[O-])CC6)CCN(C(=O)CN6CCN(CC(=O)[O-])CCN(CC(=O)[O-])CCN(CC(=O)[O-])CC6)C5)CC(C3)N4)C2)CCN(CC(=O)[O-])CC1.[Gd+3].[Gd+3].[Gd+3].[Gd+3] [Compound 9]		7.4	
O=C([O-])CN1CCN(CC(=O)[O-])CCN(C(Cc2ccc(OCC(F)(F)C(F)F)cc2)C(=O)[O-])CCN(CC(=O)O)CC1.[Gd+3] (stereo not shown) [Compound 21]	10.8	3.5	90
CCCCOc1ccc(CC(C(=O)[O-])N2CCN(CC(=O)[O-])CCN(CC(=O)[O-])CCN(CC(=O)O)CC2)cc1.[Gd+3] (stereo not shown) [Compound 14]	13.3	4.3	98
O=C([O-])CN1CCN(CC(=O)[O-])CCN(CC(=O)NCC(CNC(=O)CN2CCN(CC(=O)[O-])CCN(CC(=O)[O-])CCN(CC(=O)[O-])CC2)(CNC(=O)CN2CCN(CC(=O)[O-])CCN(CC(=O)[O-])CCN(CC(=O)[O-])CC2)CNC(=O)CN2CCN(CC(=O)[O-])CCN(CC(=O)[O-])CCN(CC(=O)[O-])CC2)CCN(CC(=O)[O-])CC1.[Gd+3].[Gd+3].[Gd+3].[Gd+3] [Compound 10]	9.7	7.3	
C[C@H](C(=O)NCC(=O)N1CCN(C(=O)CNC(=O)[C@@H](C)N2CCN(CC(=O)[O-])CCN(CC(=O)[O-])CCN(CC(=O)[O-])CC2)CC(C(=O)NCCN(CCNC(=O)C2CN(C(=O)CNC(=O)[C@@H](C)N3CCN(CC(=O)[O-])CCN(CC(=O)[O-])CCN(CC(=O)[O-])CC3)CCN(C(=O)CNC(=O)[C@@H](C)N3CCN(CC(=O)[O-])CCN(CC(=O)[O-])CCN(CC(=O)[O-])CC3)C2)C(=O)C2CN(C(=O)CNC(=O)[C@@H](C)N3CCN(CC(=O)[O-])CCN(CC(=O)[O-])CCN(CC(=O)[O-])CC3)CCN(C(=O)CNC(=O)[C@@H](C)N3CCN(CC(=O)[O-])CCN(CC(=O)[O-])CCN(CC(=O)[O-])CC3)C2)C1)N1CCN(CC(=O)[O-])CCN(CC(=O)[O-])CCN(CC(=O)[O-])CC1.[Gd+3].[Gd+3].[Gd+3].[Gd+3].[Gd+3].[Gd+3] [Compound 5]	14.3	13.0	
CCCCOc1cccc(CCC[C@@H](C(=O)O)N2CCN([C@@H](CO)C(=O)[O-])CCN([C@@H](CO)C(=O)[O-])CCN([C@@H](CO)C(=O)[O-])CC2)c1.[Gd+3] [Compound 19]	18.0	4.9	90
CCCCOc1ccc(CCCC(C(=O)O)N2CCN(CC(=O)O)CCN(CC(=O)O)CCN(CC(=O)O)CC2)cc1 (stereo not shown) [Compound 18]	15.8	4.4	94
CCOCCOCCOc1ccc(CC(C(=O)[O-])N2CCN(CC(=O)[O-])CCN(C(CC)C(=O)[O-])CCN(CC(=O)O)CC2)cc1.[Gd+3] (stereo not shown) [Compound 20]	6.9	4.8	97
CCCC(C(=O)[O-])N1CCN(CC(=O)[O-])CCN(C(Cc2ccc(OCC)cc2)C(=O)O)CCN(CC(=O)[O-])CC1.[Gd+3] (stereo not shown) [Compound 17]	7.5	4.4	99
CC(C(=O)NCC(=O)NCC(CNC(=O)CNC(=O)C(C)N1CCN(CC(=O)[O-])CCN(CC(=O)[O-])CCN(CC(=O)[O-])CC1)C(=O)NCCN(CCNC(=O)C(CNC(=O)CNC(=O)C(C)N1CCN(CC(=O)[O-])CCN(CC(=O)[O-])CCN(CC(=O)[O-])CC1)CNC(=O)CNC(=O)C(C)N1CCN(CC(=O)[O-])CCN(CC(=O)[O-])CCN(CC(=O)[O-])CC1)C(=O)C(CNC(=O)CNC(=O)C(C)N1CCN(CC(=O)[O-])CCN(CC(=O)[O-])CCN(CC(=O)[O-])CC1)CNC(=O)CNC(=O)C(C)N1CCN(CC(=O)[O-])CCN(CC(=O)[O-])CCN(CC(=O)[O-])CC1)N1CCN(CC(=O)[O-])CCN(CC(=O)[O-])CCN(CC(=O)[O-])CC1.[Gd+3].[Gd+3].[Gd+3].[Gd+3].[Gd+3].[Gd+3] (stereo not shown) [Compound 2]	13.9	12.1	
CCOCCOc1ccc(CC2CN(CC(=O)[O-])CCN(CC(=O)[O-])CCN(CC(=O)[O-])CCN2CC(=O)O)cc1.[Gd+3] (stereo not shown) [Compound 22]	6.6	4.8	94
CCCCOc1ccc(CC2CN(CC(=O)[O-])CCN(CC(=O)[O-])CCN(CC(=O)O)CCN2CC(=O)[O-])cc1.[Gd+3] (stereo not shown) [Compound 24]	9.8	5.3	86
CC(C(=O)NCC(=O)NCC(NC(=O)CNC(=O)C(C)N1CCN(CC(=O)[O-])CCN(CC(=O)[O-])CCN(CC(=O)[O-])CC1)C(=O)N1CC23CN(C(=O)C(CNC(=O)CNC(=O)C(C)N4CCN(CC(=O)[O-])CCN(CC(=O)[O-])CCN(CC(=O)[O-])CC4)NC(=O)CNC(=O)C(C)N4CCN(CC(=O)[O-])CCN(CC(=O)[O-])CCN(CC(=O)[O-])CC4)CC2(C1)CN(C(=O)C(CNC(=O)CNC(=O)C(C)N1CCN(CC(=O)[O-])CCN(CC(=O)[O-])CCN(CC(=O)[O-])CC1)NC(=O)CNC(=O)C(C)N1CCN(CC(=O)[O-])CCN(CC(=O)[O-])CCN(CC(=O)[O-])CC1)C3)N1CCN(CC(=O)[O-])CCN(CC(=O)[O-])CCN(CC(=O)[O-])CC1.[Gd+3].[Gd+3].[Gd+3].[Gd+3].[Gd+3].[Gd+3] (stereo not shown) [Compound 8]	14.6	12.5	
CC(C(=O)NCC(=O)NCC(CNC(=O)CNC(=O)C(C)N1CCN(CC(=O)[O-])CCN(CC(=O)[O-])CCN(CC(=O)[O-])CC1)C(=O)NCCN(CCNC(=O)C(CNC(=O)CNC(=O)C(C)N1CCN(CC(=O)[O-])CCN(CC(=O)[O-])CCN(CC(=O)[O-])CC1)CNC(=O)CNC(=O)C(C)N1CCN(CC(=O)[O-])CCN(CC(=O)[O-])CCN(CC(=O)[O-])CC1)C(=O)CNC(=O)C(C)N1CCN(CC(=O)[O-])CCN(CC(=O)[O-])CCN(CC(=O)[O-])CC1)N1CCN(CC(=O)[O-])CCN(CC(=O)[O-])CCN(CC(=O)[O-])CC1.[Gd+3].[Gd+3].[Gd+3].[Gd+3].[Gd+3] (stereo not shown) [Compound 1]	13.0	11.1	
